Laboratory results: EP4682145A1, “BENZOHETEROCYCLIC COMPOUND, AND PREPARATION METHOD THEREFOR AND USE THEREOF” (Cascade Pharmaceuticals, Inc., priority 2023, dated 2024)

Biological target: T1, human FFAR1 (GPR40) (Homo sapiens, UniProt O14842)
T1 construct: Flag; expressed in transfected cells; host or cells: HEK293T
Experiment: NFAT-RE-based reporter gene activity assay (Dual-Glo luciferase) for GPR40 agonistic activity in co-transfected HEK293T cells
Format: cell-based
Conditions: 4-hour treatment; for Efficacy (%): class symbols
How it was run: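 Agonism read as NFAT-RE-driven firefly luciferase over Renilla control (Dual-Glo) after 4 h compound exposure, top concentration 1 µM, 10 half-log steps.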

T1 sequence (O14842 whole entry): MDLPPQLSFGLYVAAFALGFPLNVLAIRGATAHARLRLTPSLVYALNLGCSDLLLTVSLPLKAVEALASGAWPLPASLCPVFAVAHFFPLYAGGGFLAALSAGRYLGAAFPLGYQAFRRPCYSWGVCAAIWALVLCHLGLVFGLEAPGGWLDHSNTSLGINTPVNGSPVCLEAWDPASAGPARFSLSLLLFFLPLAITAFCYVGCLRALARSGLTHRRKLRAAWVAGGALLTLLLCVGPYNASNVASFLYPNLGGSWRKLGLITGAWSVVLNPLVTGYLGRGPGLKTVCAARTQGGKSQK

| Structure (SMILES) | EC50 [µM] | Efficacy (%) |
| --- | --- | --- |
| COc1cccc(N2CCC(c3oc4cc([C@@H](CC(=O)O)C5CC5)ccc4c3C(OCC(C)C)c3cccc(F)c3)CC2)c1 (stereo partly drawn) [Compound 430] | 0.1 to 0.5 | ††† (Efficacy (%) > 150) |
| COc1cccc(N2CCC(c3oc4cc([C@@H](CC(=O)O)C5CC5)ccc4c3C(=O)Nc3ccccc3-c3ccccc3)CC2)c1 [Compound 241] | 0.1 to 0.5 | †† (150 ≥ Efficacy (%) > 100) |
| COc1cc(OC)cc(N2CCC(c3oc4cc(C(CC(=O)O)C5CC5)ccc4c3-c3ccc(C(C)(C)C)cc3)CC2)c1 (stereo not drawn) [Compound 205] | 0.1 to 0.5 | † (100 ≥ Efficacy (%) > 50) |
| COc1ccc(F)c(N2CCC(c3oc4cc([C@@H](CC(=O)O)C5CC5)ccc4c3-c3cccc(C)c3)CC2)c1 [Compound 158] | 0.1 to 0.5 | †† (150 ≥ Efficacy (%) > 100) |
| COc1ccc(F)c(N2CCC(c3oc4cc([C@@H](CC(=O)O)C5CC5)ccc4c3-c3ccc(C(C)O)cc3)CC2)c1 (stereo partly drawn) [Compound 175] | > 0.5 | †† (150 ≥ Efficacy (%) > 100) |
| COc1cccc(N2CCC(c3oc4cc([C@@H](CC(=O)O)C5CC5)ccc4c3-c3cccc(C)n3)CC2)c1 [Compound 147] | 0.01 to 0.1 | ††† (Efficacy (%) > 150) |
| COc1cccc(N2CCC(c3oc4cc(C(CC(=O)O)C5CC5)ccc4c3-c3cnn(C(C)(C)C#N)c3)CC2)c1 (stereo not drawn) [Compound 127] | 0.1 to 0.5 | ††† (Efficacy (%) > 150) |
| COc1cccc(N2CCC(c3oc4cc(C(CC(=O)O)C5CC5)ccc4c3C(=O)N3CCCC3)CC2)c1 (stereo not drawn) [Compound 358] | 0.1 to 0.5 | † (100 ≥ Efficacy (%) > 50) |
| COc1cccc(N2CCC(c3oc4cc(C(CC(=O)O)C5CC5)ccc4c3-c3ccc(C(C)(C)C)cc3)CC2)c1 (stereo not drawn) [Compound 13] | 0.1 to 0.5 | ††† (Efficacy (%) > 150) |
| COc1cccc(N2CCC(c3oc4cc([C@@H](CC(=O)O)C5CC5)ccc4c3C(C)CCC(C)C)CC2)c1 (stereo partly drawn) [Compound 385] | 0.01 to 0.1 | †† (150 ≥ Efficacy (%) > 100) |
| COc1cccc(N2CCC(c3oc4cc([C@@H](CC(=O)O)C5CC5)ccc4c3C(=O)Nc3cc(NC(C)=O)ccc3Cl)CC2)c1 [Compound 286] | 0.1 to 0.5 | †† (150 ≥ Efficacy (%) > 100) |
| COc1cccc(NC(=O)c2c(C3CCN(c4cccc(OC)c4)CC3)oc3cc(C(CC(=O)O)C4CC4)ccc23)c1 (stereo not drawn) [Compound 245] | 0.1 to 0.5 | †† (150 ≥ Efficacy (%) > 100) |
| COc1cccc(N2CCC(c3oc4cc([C@@H](CC(=O)O)C5CC5)ccc4c3C(C)OCCC(C)(C)C)CC2)c1 (stereo partly drawn) [Compound 412] | 0.1 to 0.5 | ††† (Efficacy (%) > 150) |
| COc1cccc(N2CCC(c3oc4cc([C@@H](CC(=O)O)C5CC5)ccc4c3C3OCC(C)(C)CO3)CC2)c1 [Compound 399] | 0.1 to 0.5 | †† (150 ≥ Efficacy (%) > 100) |
| COc1cccc(N2CCC(c3oc4cc(C(CC(=O)O)C5CC5)ccc4c3C(=O)Nc3nc(C(C)(C)C)cs3)CC2)c1 (stereo not drawn) [Compound 298] | 0.1 to 0.5 | †† (150 ≥ Efficacy (%) > 100) |
| COc1ccc(F)c(N2CCC(c3oc4cc(C(CC(=O)O)C5CC5)ccc4c3-c3cccc(C4CC4)c3)CC2)c1 (stereo not drawn) [Compound 164] | 0.1 to 0.5 | †† (150 ≥ Efficacy (%) > 100) |
| COc1cccc(N2CCC(c3oc4cc(C(CC(=O)O)C5CC5)ccc4c3C(=O)Nc3c(F)cccc3Br)CC2)c1 (stereo not drawn) [Compound 264] | 0.1 to 0.5 | †† (150 ≥ Efficacy (%) > 100) |
| CNc1cccc(N2CCC(c3oc4cc(C(CC(=O)O)C5CC5)ccc4c3-c3ccc(C(C)(C)C)cc3)CC2)c1 (stereo not drawn) [Compound 24] | 0.1 to 0.5 | † (100 ≥ Efficacy (%) > 50) |
| COc1ccc(F)c(N2CCC(c3oc4cc([C@@H](CC(=O)O)C5CC5)ccc4c3CCC(C)(C)C)CC2)c1 [Compound 389] | 0.1 to 0.5 | †† (150 ≥ Efficacy (%) > 100) |
| CC(C)(C)c1ccc(-c2c(C3CCN(c4ccc5ncoc5c4)CC3)oc3cc(C(CC(=O)O)C4CC4)ccc23)cc1 (stereo not drawn) [Compound 214] | 0.1 to 0.5 | † (100 ≥ Efficacy (%) > 50) |
| COc1ccc(F)c(N2CCC(c3oc4cc(C(CC(=O)O)C5CC5)ccc4c3-c3ccc(SC)cc3)CC2)c1 (stereo not drawn) [Compound 181] | 0.1 to 0.5 | †† (150 ≥ Efficacy (%) > 100) |
| COc1cccc(N2CCC(c3oc4cc(C(CC(=O)O)C5CC5)ccc4c3C(=O)Nc3ccc(C)cc3F)CC2)c1 (stereo not drawn) [Compound 251] | 0.1 to 0.5 | †† (150 ≥ Efficacy (%) > 100) |
| COc1cccc(N2CCC(c3oc4cc([C@@H](CC(=O)O)C5CC5)ccc4c3-c3csc(C(C)C)n3)CC2)c1 [Compound 107] | 0.1 to 0.5 | ††† (Efficacy (%) > 150) |
| COc1cccc(N2CCC(c3oc4cc([C@@H](CC(=O)O)C5CC5)ccc4c3-c3ccnc(C)c3)CC2)c1 [Compound 145] | 0.01 to 0.1 | †† (150 ≥ Efficacy (%) > 100) |

| Structure (SMILES) | EC50 [µM] | Efficacy (%) |
| --- | --- | --- |
| COc1cccc(N2CCC(c3oc4cc([C@@H](CC(=O)O)C5CC5)ccc4c3-c3cncc(C)c3)CC2)c1 [Compound 144] | > 0.5 | †† (150 ≥ Efficacy (%) > 100) |
| COc1ccc(F)c(N2CCC(c3oc4cc(C(CC(=O)O)C5CC5)c(F)cc4c3-c3ccc(C(C)(C)C)cc3)CC2)c1 (stereo not drawn) [Compound 223] | 0.1 to 0.5 | † (100 ≥ Efficacy (%) > 50) |
| COc1ccc(F)c(N2CCC(c3oc4cc([C@H](C5CC5)C(C)C(=O)O)ccc4c3-c3ccc(C(C)(C)C)cc3)CC2)c1 (stereo partly drawn) [Compound 218] | 0.1 to 0.5 | ††† (Efficacy (%) > 150) |
| COc1cccc(N2CCC(c3oc4cc(C(CC(=O)O)C5CC5)ccc4c3C(=O)Nc3c(F)cccc3OC)CC2)c1 (stereo not drawn) [Compound 259] | > 0.5 | †† (150 ≥ Efficacy (%) > 100) |
| COc1ccc(F)c(N2CCC(c3oc4cc(C(CC(=O)O)C5CC5)ccc4c3C(=O)NCC(C)C)CC2)c1 (stereo not drawn) [Compound 310] | 0.1 to 0.5 | †† (150 ≥ Efficacy (%) > 100) |
| COc1ccc(OC)c(N2CCC(c3oc4cc(C(CC(=O)O)C5CC5)ccc4c3-c3cnn(C(C)(C)C)c3)CC2)c1 (stereo not drawn) [Compound 85] | 0.1 to 0.5 | †† (150 ≥ Efficacy (%) > 100) |
| COc1ccccc1N1CCC(c2oc3cc(C(CC(=O)O)C4CC4)ccc3c2-c2cccc(C(C)(C)C)c2)CC1 (stereo not drawn) [Compound 21] | 0.1 to 0.5 | †† (150 ≥ Efficacy (%) > 100) |
| COC(=O)C(C)(C)n1cc(-c2c(C3CCN(c4cccc(OC)c4)CC3)oc3cc(C(CC(=O)O)C4CC4)ccc23)cn1 (stereo not drawn) [Compound 132] | 0.1 to 0.5 | ††† (Efficacy (%) > 150) |
| COc1cccc(N2CCC(c3oc4cc(C(CC(=O)O)C5CC5)ccc4c3-c3ncc(C(C)C)s3)CC2)c1 (stereo not drawn) [Compound 111] | 0.01 to 0.1 | ††† (Efficacy (%) > 150) |
| COc1ccc(F)c(N2CCC(c3oc4cc(C(CC(=O)O)C5CC5)ccc4c3C(=O)Nc3cccc(C)c3)CC2)c1 (stereo not drawn) [Compound 320] | 0.01 to 0.1 | †† (150 ≥ Efficacy (%) > 100) |
| COc1cccc(N2CCC(c3oc4cc(C(CC(=O)O)C5CC5)ccc4c3C(=CCC(C)C)c3ccccc3)CC2)c1 (stereo not drawn) [Compound 377] | 0.01 to 0.1 | †† (150 ≥ Efficacy (%) > 100) |
| COc1cccc(N2CCC(c3oc4cc(C(CC(=O)O)C5CC5)ccc4c3-c3nnc(C(C)C)o3)CC2)c1 (stereo not drawn) [Compound 123] | 0.1 to 0.5 | †† (150 ≥ Efficacy (%) > 100) |
| COc1cccc(N2CCC(c3oc4cc([C@@H](CC(=O)O)C5CC5)ccc4c3C(OCC(C)C)c3ccccc3C)CC2)c1 (stereo partly drawn) [Compound 429] | 0.1 to 0.5 | ††† (Efficacy (%) > 150) |
| COc1cccc(N2CCC(c3oc4cc(C(CC(=O)O)C5CC5)ccc4c3C(=O)Nc3nccn3C)CC2)c1 (stereo not drawn) [Compound 304] | 0.1 to 0.5 | ††† (Efficacy (%) > 150) |
| COc1cccc(N2CCC(c3oc4cc([C@@H](CC(=O)O)C5CC5)ccc4c3/C=C/C(C)(C)C)CC2)c1 [Compound 361] | 0.01 to 0.1 | †† (150 ≥ Efficacy (%) > 100) |
| COc1ccc(C(=O)N(C)CC(C)(C)C)c(N2CCC(c3oc4cc([C@@H](CC(=O)O)C5CC5)ccc4c3-c3cnn(C(C)(C)C)c3)CC2)c1 [Compound 92] | 0.1 to 0.5 | ††† (Efficacy (%) > 150) |
| COc1cccc(N2CCC(c3oc4cc([C@@H](CC(=O)O)C5CC5)ccc4c3-c3ccc4cccc(F)c4n3)CC2)c1 [Compound 155] | 0.01 to 0.1 | ††† (Efficacy (%) > 150) |
| CCCCCCCC(C)(C)c1nnc(-c2c(C3CCN(c4cccc(OC)c4)CC3)oc3cc(C(CC(=O)O)C4CC4)ccc23)o1 (stereo not drawn) [Compound 451] | 0.01 to 0.1 | †† (150 ≥ Efficacy (%) > 100) |
| COc1cccc(N2CCC(c3oc4cc(C(CC(=O)O)C5CC5)ccc4c3C(=O)NC3CCCCC3)CC2)c1 (stereo not drawn) [Compound 344] | 0.1 to 0.5 | †† (150 ≥ Efficacy (%) > 100) |
| CC(C)(C)c1ccc(-c2c(C3CCN(c4ccc5ccoc5c4)CC3)oc3cc(C(CC(=O)O)C4CC4)ccc23)cc1 (stereo not drawn) [Compound 209] | 0.1 to 0.5 | †† (150 ≥ Efficacy (%) > 100) |
| COc1cccc(N2CCC(c3oc4cc(C(CC(=O)O)C5CC5)ccc4c3C(=O)Nc3nccs3)CC2)c1 (stereo not drawn) [Compound 290] | 0.1 to 0.5 | †† (150 ≥ Efficacy (%) > 100) |
| COc1ccc(F)c(N2CCC(c3oc4cc([C@@H](CC(=O)O)C5CC5)ccc4c3C(=O)Nc3cc(Cl)ccc3F)CC2)c1 [Compound 338] | 0.01 to 0.1 | †† (150 ≥ Efficacy (%) > 100) |
| CCc1ccc(Cl)c(NC(=O)c2c(C3CCN(c4cccc(OC)c4)CC3)oc3cc([C@@H](CC(=O)O)C4CC4)ccc23)c1 [Compound 278] | < 0.01 | †††† |
| COc1ccc(F)c(N2CCC(c3oc4cc([C@@H](CC(=O)O)C5CC5)ccc4c3-c3ccc(C(=O)NCC(C)(C)C)cc3)CC2)c1 [Compound 198] | 0.1 to 0.5 | †† (150 ≥ Efficacy (%) > 100) |
